This is an account of results in US5037830A, “Novel thiouracyl derivatives, pharmaceutical compositions containing them and process for preparing same” (Richter Gedeon Vegyeszeti Gyar RT, priority 1989, dated 1991).

The test system of assay [1] is necrosis induced by ethanol containing hydrochloric acid. Nature of the assay: Cytoprotective effect (modified Robert's test). It counts as in vivo. Particulars: for Bleedings, change: vs control; for ED50: po, cytoprotection. How it is done: The modified Robert's test [Gastroenterology 17, 761 (1979)] was used. The necrotizing agent (100 ml of abs. ethanol containing 2 ml of concentrated hydrochloric acid) was orally administered in a volume of 0.5 ml/100 g by 30 minutes after giving the compound to be tested. (12 animals were used for each dose.) After 1 hour the animals were killed by ether and the bleedings on the glandular part of their stomach were evaluated.

In assay [2] the test system is spontaneous gastric acid secretion. Nature of the assay: Gastric acid secretion-inhibiting effect according to Shay's method. It counts as in vivo, female OFA rats. The note with it: for Gastric acid, change / Gastric juice, change: vs control; for Gastric acid, treated: titration with 0.1N NaOH; for inhibitor effect on gastric acid secretion, in words: compared with reference drugs; for ED50: po, gastric acid, Shay rat. As to the method:
After being starved for 24 hours, female OFA rats weighing 130 to 160 g were orally treated with the compounds to be tested. (15 animals were used for each dose.) One hour later laparotomy and pylorus ligature were carried out under ether anaesthesia according to Shay [Gastroenterology 5, 43 (1945)]. After 5 hours the animals were killed by an overdose of ether, their stomaches were excised and the volume and acid content of the gastric juice were determined. The acid was measured by titration with 0.1N NaOH, by using Topfer's indicator.

Assay [3] relates to gastric ulcer after pylorus ligature. Briefly: Gastric ulcer-inhibiting effect in rats operated according to Shay's method. It counts as in vivo, female OFA rats. The note with it: Rattus norvegicus, po, 18 h, p.o. As to the method:
Female OFA rats starved for 24 hours weighing 150 to 160 g were used. (The animals were allowed to drink water ad libitum). The animals were orally treated with the substance to be tested and after 1 hour laparotomy and pylorus ligature according to Shay [Gastroenterology 5, 43 (1945)] were performed under ether anaesthesia. After 18 hours the number and size of ulcers formed on the membranaceous part of the stomach were examined under microscope. The evaluation was made in relation to the control group and the ED50 values were determined. The sizes of the ulcers were expressed as score values from 0.5 to 32.

Assay [4] has as its system reserpine-induced gastric ulcer. Nature of the assay: Inhibition of the reserpine-induced gastric ulcer. It counts as in vivo, female OFA rats. Particulars: Rattus norvegicus, po, 18 h, p.o., reserpine 5 mg/kg s.c. How it is done: After being starved for 24 hours, female OFA rats were orally treated with the compounds to be tested and then subcutaneously (s.c.) with 5 mg/kg of reserpine after 1 hour. After 18 hours the animals were killed and their stomach were examined under microscope. The evaluation was performed as described under the preceding paragraph 1.

Where [5] appears, read: read-out: ED50 related to the number of ulcers.
Where [6] appears, read: read-out: ED50 related to the occurrance of ulcers.
The mark [7] stands for this setting: read-out: ED50 related to the severity of ulcers.

Read-outs that look alike come from different tables or passages of the source.

One may read the ED50 as the dose at which the effect has come halfway, by size or by number of responders. On to `CN(C)c1ccccc1CSc1nc(-c2ccccc2)cc(=O)[nH]1` [Example 5, 2-(2-dimethylamino-benzyl)thio-6-phenyl-4(3H)-pyrimidinone], for which the “Bleedings, treated” value stood at 73.5 mm in assay [1] (5 mg/kg p.o.), 47.6 mm in assay [1] (10 mg/kg p.o.) and 24.3 mm in assay [1] (20 mg/kg p.o.). The “Bleedings, change” value is -26.3% in assay [1] (5 mg/kg p.o.), -52.3% in assay [1] (10 mg/kg p.o.) and -81.7% in assay [1] (20 mg/kg p.o.). For the same compound, the ED50 in assay [1] stood at 9.9 mg/kg; in assay [2], 8.1 mg/kg. Further, the “Gastric juice, treated” value in assay [2] (5 mg/kg p.o.) turned out to be 5.77 mL; in assay [2] (10 mg/kg p.o.) it was 5.51 mL; in assay [2] (20 mg/kg p.o.), 4.33 mL; in assay [2] (40 mg/kg p.o.), 6.80 mL. In addition, the “Gastric acid, change” value is recorded as -24.9% in assay [2] (5 mg/kg p.o.), -62.0% in assay [2] (10 mg/kg p.o.), -86.3% in assay [2] (20 mg/kg p.o.) and -94.5% in assay [2] (40 mg/kg p.o.). Further, the “Gastric juice, change” value was -17.3% in assay [2] (5 mg/kg p.o.), -19.6% in assay [2] (10 mg/kg p.o.), -37.1% in assay [2] (20 mg/kg p.o.) and “+6.8%” in assay [2] (40 mg/kg p.o.). In addition, the “Gastric acid, treated” value in assay [2] (5 mg/kg p.o.) came to 2.11 mL; in assay [2] (10 mg/kg p.o.), 2.06 mL; in assay [2] (20 mg/kg p.o.), 0.37 mL; in assay [2] (40 mg/kg p.o.), 0.18 mL. The “inhibitor effect on gastric acid secretion, in words” value in assay [2] is on record as “more active then either of both reference drugs”.
On to `CCN(C)c1ccccc1CSc1nc(C)cc(=O)[nH]1` [Example 10], for which, in assay [2] (10 mg/kg p.o.), the “Gastric juice, treated” value was 5.23 mL; the “Gastric acid, change” value is recorded as -32.5%; the “Gastric juice, change” value is listed as -13.7%; the “Gastric acid, treated” value was determined as 1.89 mL. In addition, in assay [2] (20 mg/kg p.o.), the “Gastric juice, treated” value turned out to be 5.23 mL; the “Gastric acid, change” value is recorded as -60.3%; the “Gastric juice, change” value is -18.0%; the “Gastric acid, treated” value was determined as 1.23 mL. For the same compound, in assay [2] (40 mg/kg p.o.), the “Gastric juice, treated” value is 5.39 mL; the “Gastric acid, change” value is on record as -87.3%; the “Gastric juice, change” value is listed as -24.8%; the “Gastric acid, treated” value is 0.45 mL. In assay [2], the “inhibitor effect on gastric acid secretion, in words” value is “equiactive to the NC-1300 reference drug” and it took a dose of 15.5 mg/kg to reach the 50% effect level (ED50).
On to `COc1ccc2[nH]c([S+]([O-])Cc3ncc(C)c(OC)c3C)nc2c1` (centres unmarked) [Omeprazole, 2-[[(3,5-dimethyl-4-methoxypyridin-2-il)-methyl]-sulfinyl]-5-methoxy-1H-benzimidazole, reference compound], for which the entries for the “Bleedings, treated” value in assay [1] (5 mg/kg p.o.), in assay [1] (10 mg/kg p.o.) and in assay [1] (20 mg/kg p.o.) were 61.8 mm, 46.0 mm and 14.2 mm, respectively. The “Bleedings, change” value in assay [1] (5 mg/kg p.o.) was -27.1%; in assay [1] (10 mg/kg p.o.), -45.8%; in assay [1] (20 mg/kg p.o.), -83.8%. Further, the ED50 in assay [1] came out at 10 mg/kg; in assay [2], 10.5 mg/kg; in assay [3] (setting [5]) it was 9.2 mg/kg; in assay [3] (setting [6]), 17 mg/kg; in assay [3] (setting [7]), 11 mg/kg; in assay [4] (setting [5]), 17 mg/kg. The ED50 in assay [4] (setting [6]) came out at 24 mg/kg; in assay [4] (setting [7]), 20 mg/kg. The “Gastric juice, treated” value stood at 5.40 mL in assay [2] (5 mg/kg p.o.), 5.47 mL in assay [2] (10 mg/kg p.o.) and 4.30 mL in assay [2] (20 mg/kg p.o.). Further, the “Gastric acid, change” value in assay [2] (5 mg/kg p.o.) is reported as -35.4%; in assay [2] (10 mg/kg p.o.), -37.3%; in assay [2] (20 mg/kg p.o.), -74.7%. The “Gastric juice, change” value in assay [2] (5 mg/kg p.o.) is -21.5%; in assay [2] (10 mg/kg p.o.), -20.5%; in assay [2] (20 mg/kg p.o.), -38.4%. Moreover, the figures for the “Gastric acid, treated” value in assay [2] (5 mg/kg p.o.), in assay [2] (10 mg/kg p.o.) and in assay [2] (20 mg/kg p.o.) were 1.75 mL, 1.70 mL and 0.71 mL, respectively.
